According to patent US6703506B2, “Amino acid ester containing azole antifungals” (Janssen Pharmaceutica, N.V., priority 1997, dated 2004):

Columns and labels:
[1] = Chemical stability (open glass jar, 40° C., 75% relative humidity); format: physicochemical; conditions: 50 mg, after one week
Description: After one week, the amount of test compound remaining was determined.

Aspergillus fumigatus [2] = test: Disseminated aspergillosis in guinea-pigs; format: in vivo; conditions: for CFU/g (liver): culture-positive livers post mortem; for % neg (total percentage culture-negative deep tissues): liver, spleen, kidney, lung and brain
Description: (§1) Specific pathogen-free (SPF) guinea-pigs (weighing 400-500 g) were used in all experiments. A catheter was placed into the left jugular vein of the animals that were treated by intravenous infusion, the vein was ligated, and the catheter was connected to a microprocessor-controlled infusion pump. The animals were infected with Aspergillus fumigatus (4,000 CFU/g body weight) or with Candida albicans (40,000 CFU/g body weight) either via the lateral vein of the penis or via the implanted catheter. Intravenous treatments (5 mg/kg/day) began 1 hour after infection. The test formulations were then administered on subsequent days as two, 1 hour infusions daily, separated by a period of 5 hours, for a total of 19 infusions or 9.5 days. Oral treatments with the test compounds (5 mg/kg/day) begun 1 hour after infection and were repeated twice daily up to the tenth day after infection (a total of 19 treatments. For each group of tested animals (number of tested animals per group given in column “N”), the mean survival time (MST) in days was recorded as well as the % survivors (% surv). Animals of each group which died during the experiment and those that survived the experiment and were killed, were investigated for counts of Aspergillus fumigatus and Candida albicans in deep tissue (liver, spleen, kidney, lung and brain) post mortem. The remaining CFU/g in the culture-positive livers was measured and expressed in table 9 (after intravenous treatment) and table 10 (after oral treatment) as mean log10 CFU/g. The columns “%neg” in tables 9 and 10 express the total percentage culture-negative deep tissues after the treatment.

Candida parapsilosis = test: Determination of fungal susceptibility (MIC); format: cell-based; conditions: CYG medium, 2 days at 37° C., growth to 35% of control or less
Description: (§2) A panel of Candida isolates plus single isolates of the dermatophytes Microsporum canis, Trichophyton rubrum and T. mentagrophytes; Aspergillus fumigates, and Cryptococcus neoformans were used to evaluate the activity of the test compounds in vitro. Inocula were prepared as broth cultures (yeasts) or as suspensions of fungal material made from agar slope cultures (moulds). The test compounds were pipetted from DMSO stock solution into water to provide a series of 10-fold dilutions. The fungal inocula were suspended in the growth medium CYG (F. C. Odds, Journal of Clinical Microbiology, 29, (2735-2740, 1991) at approximately 50,000 colony-forming units (CFU) per ml and added to the aqueous test drugs. The cultures were set up in the 96 wells of plastic microdilution plates and they were incubated for 2 days at 37° C. (Candida spp.) or for 5 days at 30° C. (other fungi). Growth in the microcultures was measured by their optical density (OD) measured at a wavelength of 405 nm. The OD for cultures with test compounds was calculated as a percentage of the control, drug-free OD. Inhibition of growth to 35% of control or less was recorded as significant inhibition.
(§3) Minimal inhibitory concentration (MICs; in 10^−6 M) of intermediate 2 as the major metabolite and some of the compounds of formula (I) for Candida glabrata, Candida krusel, Candida parapsilosis, Candida albicans, Candida kefyr, Candida tropicalis, Microsporum canis, Trichophyton rubrum, Trichophyton mentagrophytes, Cryptococcus neoformans, Aspergillus fumigatus are listed in table 8.

[3] = system: Trichophyton mentagrophytes; test: Determination of fungal susceptibility (MIC); format: cell-based; conditions: CYG medium, 5 days at 30° C., growth to 35% of control or less
Description: as §2, §3

Cryptococcus neoformans = test: Determination of fungal susceptibility (MIC); format: cell-based; conditions: CYG medium, 5 days at 30° C., growth to 35% of control or less
Description: as §2, §3

Trichophyton rubrum = test: Determination of fungal susceptibility (MIC); format: cell-based; conditions: CYG medium, 5 days at 30° C., growth to 35% of control or less
Description: as §2, §3

Microsporum canis = test: Determination of fungal susceptibility (MIC); format: cell-based; conditions: CYG medium, 5 days at 30° C., growth to 35% of control or less
Description: as §2, §3

Candida krusei = test: Determination of fungal susceptibility (MIC); format: cell-based; conditions: CYG medium, 2 days at 37° C., growth to 35% of control or less
Description: as §2, §3

Candida glabrata = test: Determination of fungal susceptibility (MIC); format: cell-based; conditions: CYG medium, 2 days at 37° C., growth to 35% of control or less
Description: as §2, §3

Aspergillus fumigatus [4] = test: Determination of fungal susceptibility (MIC); format: cell-based; conditions: CYG medium, 5 days at 30° C., growth to 35% of control or less
Description: as §2, §3

Candida albicans [5] = test: Determination of fungal susceptibility (MIC); format: cell-based; conditions: CYG medium, 2 days at 37° C., growth to 35% of control or less
Description: as §2, §3

Candida kefyr = test: Determination of fungal susceptibility (MIC); format: cell-based; conditions: CYG medium, 2 days at 37° C., growth to 35% of control or less
Description: as §2, §3

Candida tropicalis = test: Determination of fungal susceptibility (MIC); format: cell-based; conditions: CYG medium, 2 days at 37° C., growth to 35% of control or less
Description: as §2, §3

Candida albicans [6] = test: Disseminated candidosis in guinea-pigs; format: in vivo; conditions: for CFU/g (liver): culture-positive livers post mortem; for % neg (total percentage culture-negative deep tissues): liver, spleen, kidney, lung and brain
Description: as §1

[7] = i.v. treatment 5 mg/kg/day, 19 infusions, 9.5 days
[8] = oral treatment 5 mg/kg/day, twice daily, 19 treatments

| Compound | Stability (amount of test compound remaining) [1] | CFU/g (liver) (Aspergillus fumigatus [2]; i.v. treatment 5 mg/kg/day) | CFU/g (liver) (Aspergillus fumigatus [2]; oral treatment 5 mg/kg/day) | % surv (% survivors) (Aspergillus fumigatus [2]; [7]) | MST (mean survival time) (Aspergillus fumigatus [2]; [7]) | % neg (total percentage culture-negative deep tissues) (Aspergillus fumigatus [2]; i.v. treatment 5 mg/kg/day) | % neg (total percentage culture-negative deep tissues) (Aspergillus fumigatus [2]; oral treatment 5 mg/kg/day) | % surv (% survivors) (Aspergillus fumigatus [2]; [8]) | MST (mean survival time) (Aspergillus fumigatus [2]; [8]) | MIC (Candida parapsilosis) | MIC [3] | MIC (Cryptococcus neoformans) | MIC (Trichophyton rubrum) | MIC (Microsporum canis) | MIC (Candida krusei) | MIC (Candida glabrata) | MIC (Aspergillus fumigatus [4]) | MIC (Candida albicans [5]) | MIC (Candida kefyr) | MIC (Candida tropicalis) | also measured |
| --- | --- | --- | --- | --- | --- | --- | --- | --- | --- | --- | --- | --- | --- | --- | --- | --- | --- | --- | --- | --- | --- |
| C[C@H](OC(=O)CCN)[C@H](C)n1ncn(-c2ccc(N3CCN(c4ccc(OC[C@@H]5CO[C@@](Cn6cncn6)(c6ccc(F)cc6F)O5)cc4)CC3)cc2)c1=O.O.O=C(O)C[C@H](O)C(=O)O.O=C(O)C[C@H](O)C(=O)O (relative stereo) [Compound 12, [2S-[2α,4α-[(R*,R*)]]]-2-[4-[4-[4-[4-[[2-(2,4-difluorophenyl)-2-(1H-1,2,4-triazol-1-ylmethyl)-1,3-dioxolan-4-yl]methoxy]phenyl]-1-piperazinyl]phenyl]-4,5-dihydro-5-oxo-1H-1,2,4-triazol-1-yl]-1-methylpropyl β-alanine (S)-hydroxybutanedioate(1:2) monohydrate] | 96.1% |  |  |  |  |  |  |  |  |  |  |  |  |  |  |  |  |  |  |  |  |
| CC(N)C(=O)OC(C)C(C)n1ncn(-c2ccc(N3CCN(c4ccc(OCC5COC(Cn6cncn6)(c6ccc(F)cc6F)O5)cc4)CC3)cc2)c1=O.O.O=C(O)CCC(=O)O (stereo not drawn) [Compound 10] | 31.0% |  |  |  |  |  |  |  |  |  |  |  |  |  |  |  |  |  |  |  |  |
| CC(OC(=O)CCN)C(C)n1ncn(-c2ccc(N3CCN(c4ccc(OCC5COC(Cn6cncn6)(c6ccc(F)cc6F)O5)cc4)CC3)cc2)c1=O.O.O=C(O)C(=O)O (stereo not drawn) [Compound 13] | 98.3% |  |  |  |  |  |  |  |  |  |  |  |  |  |  |  |  |  |  |  |  |
| CCN(CC)CCC(=O)OC(C)C(C)n1ncn(-c2ccc(N3CCN(c4ccc(OCC5COC(Cn6cncn6)(c6ccc(F)cc6F)O5)cc4)CC3)cc2)c1=O.O.O=C(O)C=CC(=O)O (stereo not drawn) [Compound 15] | 90.4% |  |  |  |  |  |  |  |  |  |  |  |  |  |  |  |  |  |  |  |  |
| CCN(CC)CC(=O)OC(C)C(C)n1ncn(-c2ccc(N3CCN(c4ccc(OCC5COC(Cn6cncn6)(c6ccc(F)cc6F)O5)cc4)CC3)cc2)c1=O.O=C(O)C=CC(=O)O (stereo not drawn) [Compound 16, [2S-[2α,4α-[(R*,R*)]]]-2-[4-[4-[4-[4-[[2-(2,4-difluorophenyl)-2-(1H-1,2,4-triazol-1-ylmethyl)-1,3-dioxolan-4-yl]methoxy]phenyl]-1-piperazinyl]phenyl]-4,5-dihydro-5-oxo-1H-1,2,4-triazol-1-yl]-1-methylpropyl N,N-diethylglycine (E)-2-butenedioate] | 100.3% | 3.4 mean log10 CFU/g | 3.1 mean log10 CFU/g | 16.7% | 6.8 days | 29% | 48% | 40% | 6.5 days | <0.1 10^−6 M | 1 10^−6 M | 1 10^−6 M | <0.1 10^−6 M | 1 10^−6 M | 1 10^−6 M | 10 10^−6 M | 1 10^−6 M | <0.1 10^−6 M | <0.1 10^−6 M | <0.1 10^−6 M | CFU/g (liver) (Candida albicans [6]; i.v. treatment 5 mg/kg/day): 0 mean log10 CFU/g; CFU/g (liver) (Candida albicans [6]; oral treatment 5 mg/kg/day): 0 mean log10 CFU/g; % surv (% survivors) (Candida albicans [6]; [7]): 66.7%; MST (mean survival time) (Candida albicans [6]; [7]): 9.3 days; % neg (total percentage culture-negative deep tissues) (Candida albicans [6]; i.v. treatment 5 mg/kg/day): 79%; % neg (total percentage culture-negative deep tissues) (Candida albicans [6]; oral treatment 5 mg/kg/day): 73%; % surv (% survivors) (Candida albicans [6]; [8]): 90%; MST (mean survival time) (Candida albicans [6]; [8]): 9.6 days |
| CC(C)C(N)C(=O)OC(C)C(C)n1ncn(-c2ccc(N3CCN(c4ccc(OCC5COC(Cn6cncn6)(c6ccc(F)cc6F)O5)cc4)CC3)cc2)c1=O (stereo not drawn) [Compound 18] | 101.7% | 3.1 mean log10 CFU/g | 3.2 mean log10 CFU/g | 16.7% | 5.3 days | 29% | 20% | 0% | 5.2 days | <0.1 10^−6 M | 1 10^−6 M | 1 10^−6 M | 10 10^−6 M | 10 10^−6 M | 1 10^−6 M | 10 10^−6 M | 1 10^−6 M | <0.1 10^−6 M | <0.1 10^−6 M | <0.1 10^−6 M | CFU/g (liver) (Candida albicans [6]; i.v. treatment 5 mg/kg/day): 0 mean log10 CFU/g; CFU/g (liver) (Candida albicans [6]; oral treatment 5 mg/kg/day): 0 mean log10 CFU/g; % surv (% survivors) (Candida albicans [6]; [7]): 66.7%; MST (mean survival time) (Candida albicans [6]; [7]): 9.2 days; % neg (total percentage culture-negative deep tissues) (Candida albicans [6]; i.v. treatment 5 mg/kg/day): 92%; % neg (total percentage culture-negative deep tissues) (Candida albicans [6]; oral treatment 5 mg/kg/day): 68%; % surv (% survivors) (Candida albicans [6]; [8]): 100%; MST (mean survival time) (Candida albicans [6]; [8]): 10 days |
| CC(C)CC(N)C(=O)OC(C)C(C)n1ncn(-c2ccc(N3CCN(c4ccc(OCC5COC(Cn6cncn6)(c6ccc(F)cc6F)O5)cc4)CC3)cc2)c1=O (stereo not drawn) [Compound 21] | 100.3% | 3.7 mean log10 CFU/g | 3.0 mean log10 CFU/g | 0% | 5.7 days | 46% | 55% | 40% | 7.0 days | 0.1 10^−6 M | 1 10^−6 M | 1 10^−6 M | <0.1 10^−6 M | 1 10^−6 M | 1 10^−6 M | 10 10^−6 M | 1 10^−6 M | 0.1 10^−6 M | 0.1 10^−6 M | 0.1 10^−6 M | CFU/g (liver) (Candida albicans [6]; i.v. treatment 5 mg/kg/day): 2.7 mean log10 CFU/g; CFU/g (liver) (Candida albicans [6]; oral treatment 5 mg/kg/day): 0 mean log10 CFU/g; % surv (% survivors) (Candida albicans [6]; [7]): 16.7%; MST (mean survival time) (Candida albicans [6]; [7]): 6.5 days; % neg (total percentage culture-negative deep tissues) (Candida albicans [6]; i.v. treatment 5 mg/kg/day): 75%; % neg (total percentage culture-negative deep tissues) (Candida albicans [6]; oral treatment 5 mg/kg/day): 83%; % surv (% survivors) (Candida albicans [6]; [8]): 90%; MST (mean survival time) (Candida albicans [6]; [8]): 9.6 days |
| [2S-[2α,4α[(R*,R*)]]]-4-[4-[4-[4-[[2-(2,4-difluorophenyl)-2-(1H-1,2,4-triazol-1-ylmethyl)-1,3-dioxolan-4-yl]methoxy]-phenyl]-1-piperazinyl]phenyl]-2,4-dihydro-2-(2-hydroxy-1-methylpropyl)-3H-1,2,4-triazol-3-one [Interm. 2a] |  |  |  |  |  |  |  |  |  | 1 10^−6 M | 1 10^−6 M | 1 10^−6 M | 1 10^−6 M | 1 10^−6 M | 1 10^−6 M | 10 10^−6 M | 1 10^−6 M | 10 10^−6 M | <0.1 10^−6 M | 1 10^−6 M |  |
